Measured values as given in patent US9309222B2, “Phenyl linked quinolinyl modulators of RORγt” (Janssen Pharmaceutica NV, priority 2012, dated 2016).
Values joined by “and” are separate entries in the source; they are usually repeats but may differ in a detail not shown here. Equal values may be shown once.

Key:
[1] = test system: IL-17 production by CD4 T cells; test: Human Th17 assay (IL-17 production by CD4 T cells under Th17 differentiation conditions); format: cell-based; conditions: IL-17 in supernatant after 3 days
Description: The human Th17 assay tests the effect of RORγt modulatory compounds on IL-17 production by CD4 T cells under conditions which favor Th17 differentiation. Total CD4^+ T cells were isolated from the peripheral blood mononuclear cells (PBMC) of healthy donors using a CD4^+ T cell isolation kit II, following the manufacturer's instructions (Miltenyi Biotec). […] 50 μL of compound at titrated concentrations in DMSO were added into each well at final DMSO concentration at 0.2%. Cells were incubated for 1 hour, then 50 μL of Th17 cell differentiation medium was added to each well. The final concentrations of antibodies and cytokines (R&D Systems) in differentiation medium were: 3×10^6/mL anti-CD3/CD28 beads (prepared using human T cell activation/expansion kit, Miltenyi Biotec), 10 μg/mL anti-IL4, 10 μg/mL anti-IFNγ, 10 ng/mL IL113, 10 ng/mL IL23, 50 ng/mL IL6, 3 ng/mL TGFβ and 20 U/mL IL2. Cells were cultured at 37° C. and 5% CO2 for 3 days. Supernatants were collected and the accumulated IL-17 in culture was measured by using MULTI-SPOT® Cytokine Plate following manufacture's instruction (Meso Scale Discovery). The plate was read using Sector Imager 6000, and IL-17 concentration was extrapolated from the standard curve. The IC50s were determined by GraphPad.

human RORγt LBD = target: T1, human RORγt LBD (Homo sapiens, UniProt P51449); test: RORγt reporter assay (GAL4-RORγt LBD luciferase in HEK293T cells); format: cell-based; conditions: for IC50 / RORγt reporter Assay, % inhibition @ 6 μM: HEK293T cells; for IC50: 24 hours compound treatment; for inhibition at 6 µM: HEK-293T, read-out: RORγt reporter Assay, % inhibition @ 6 μM, HEK293T cells, 6 μM compound; for RORγt reporter Assay, % inhibition @ 6 μM: 6 μM compound
T1 construct: expressed in transfected cells
T1 sequence (P51449 258-518): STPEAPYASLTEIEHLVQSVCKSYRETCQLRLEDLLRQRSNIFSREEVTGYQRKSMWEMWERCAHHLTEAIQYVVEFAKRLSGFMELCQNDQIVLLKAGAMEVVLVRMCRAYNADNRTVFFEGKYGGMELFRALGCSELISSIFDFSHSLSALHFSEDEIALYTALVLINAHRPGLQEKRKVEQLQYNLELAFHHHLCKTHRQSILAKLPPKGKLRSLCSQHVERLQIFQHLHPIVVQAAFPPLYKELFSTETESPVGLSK
How it was run: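 HEK293T cells transiently co-transfected with pBIND (GAL4 DBD fused to wild-type human RORγt LBD, plus SV40-driven renilla luciferase) and pGL4.31 GAL4-responsive firefly luciferase reporter. Plated in phenol-red-free DMEM with 5% lipid-reduced FCS and treated with compound for 24 h. Firefly/renilla luminescence ratio plotted against compound concentration.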

[2] = target: T2, human RORγt ligand binding domain (RORγt LBD) (Homo sapiens, UniProt P51449); test: RORγt ThermoFluor assay (thermal shift, ligand binding affinity); conditions: estimated from concentration response of thermal shift
T2 construct: His-tag (N); TurboTEV protease cleavage site (ENLYFQG) (N); made in house; host or cells: E. coli (pHIS1, modified pET vector)
T2 sequence (P51449 with tags, fused parts or gaps): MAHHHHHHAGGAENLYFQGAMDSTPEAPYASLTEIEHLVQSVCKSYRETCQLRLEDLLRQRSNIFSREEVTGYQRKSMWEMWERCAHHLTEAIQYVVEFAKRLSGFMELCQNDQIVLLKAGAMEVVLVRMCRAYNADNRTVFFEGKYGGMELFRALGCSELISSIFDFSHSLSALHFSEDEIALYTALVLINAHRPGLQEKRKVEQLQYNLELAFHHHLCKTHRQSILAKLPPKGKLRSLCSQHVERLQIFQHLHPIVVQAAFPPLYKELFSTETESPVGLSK
How it was run: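 Thermal shift of 0.065 mg/mL RORγt with 60 μM 1,8-ANS in 100 mM Hepes pH 7.0, 10 mM NaCl, 2.5 mM GSH, 0.002% Tween-20. Compounds in 1:2 series from 10 mM DMSO stock. Dye fluorescence (500 nm emission) tracked versus temperature; ΔTm used to derive KD.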

Row | IC50 [1] | IC50 (human RORγt LBD) | inhibition at 6 µM (human RORγt LBD) | Kd [2] | RORγt reporter Assay, % inhibition @ 6 μM (human RORγt LBD) | IC50 ([1]; Homo sapiens, CD4+ T, 72 h) | Compound
1 | 27 nM | 3.8 nM | 94% | 3 nM | – | – | CC(=O)N1CCC(C(O)(c2ccccc2)c2ccc3nc(C(F)(F)F)c(-c4ccccc4)c(C(F)(F)F)c3c2)CC1 (single isomer, unassigned) [Example 169b, 1-(4-(Hydroxy(phenyl)(3-phenyl-2,4-bis(trifluoromethyl)quinolin-6-yl)methyl)piperidin-1-yl)ethanone]
2 | 110 nM | 100 nM | – | 52 nM | 96% | – | CC(=O)N1CCC(C(O)(c2ccccc2)c2ccc3nc(C(F)(F)F)c(-c4ccccc4)c(C(F)(F)F)c3c2)CC1 (single isomer, unassigned) [Example 169c, 1-(4-(Hydroxy(phenyl)(3-phenyl-2,4-bis(trifluoromethyl)quinolin-6-yl)methyl)piperidin-1-yl)ethanone]
3 | – | 140 nM | – | 64 nM | 95% | 110 nM | Cc1cc(C(O)(c2ccc(F)cc2)c2cncn2C)cc2c(C#N)c(-c3cccc(F)c3)c(C#N)nc12 (single isomer, unassigned) [Example 175c, 3-(3-Fluorophenyl)-6-((4-fluorophenyl)(hydroxy)(1-methyl-1H-imidazol-5-yl)methyl)-8-methylquinoline-2,4-dicarbonitrile]
4 | – | 320 nM | – | 68 nM | 95% | 310 nM | Cc1cc(C(O)(c2ccc(C(F)(F)F)nc2)c2cncn2C)cc2c(C#N)c(-c3cccc(F)c3)c(C#N)nc12 (single isomer, unassigned) [Example 176c, 3-(3-Fluorophenyl)-6-(hydroxy(1-methyl-1H-imidazol-5-yl)(6-(trifluoromethyl)pyridin-3-yl)methyl)-8-methylquinoline-2,4-dicarbonitrile]
5 | 200 nM | 400 nM | 83% | 22 nM | – | – | COc1nc2c(C)cc(C(O)(c3ccc(C(F)(F)F)nc3)c3cncn3C)cc2c(Cl)c1-c1cccc(F)c1 (single isomer, unassigned) [Example 177b, (4-Chloro-3-(3-fluorophenyl)-2-methoxy-8-methylquinolin-6-yl)(1-methyl-1H-imidazol-5-yl)(6-(trifluoromethyl)pyridin-3-yl)methanol]
6 | 2500 nM | 360 nM | – | 1300 nM | 98% | – | COc1nc2c(C)cc(C(O)(c3ccc(C(F)(F)F)nc3)c3cncn3C)cc2c(Cl)c1-c1cccc(F)c1 (single isomer, unassigned) [Example 177c, (4-Chloro-3-(3-fluorophenyl)-2-methoxy-8-methylquinolin-6-yl)(1-methyl-1H-imidazol-5-yl)(6-(trifluoromethyl)pyridin-3-yl)methanol]
7 | – | 35 nM | – | 29 nM | 96% | 45 nM | COc1nc2c(C)cc(C(O)(c3ccc(F)cc3)c3cncn3C)cc2c(Cl)c1-c1cccc(F)c1 (single isomer, unassigned) [Example 178c, (4-Chloro-3-(3-fluorophenyl)-2-methoxy-8-methylquinolin-6-yl)(4-fluorophenyl)(1-methyl-1H-imidazol-5-yl)methanol]
8 | – | 480 nM | – | 63 nM | 96% | ~1000 nM | COc1nc2c(C)cc(C(O)(c3ccc(C(F)(F)F)nc3)c3cncn3C)cc2c(C#N)c1-c1cccc(F)c1 (single isomer, unassigned) [Example 179c, 3-(3-Fluorophenyl)-6-(hydroxy(1-methyl-1H-imidazol-5-yl)(6-(trifluoromethyl)pyridin-3-yl)methyl)-2-methoxy-8-methylquinoline-4-carbonitrile]
9 | ~5000 nM | 1900 nM and ~3000 nM | 80% | 67000 nM | – | – | COc1nc2c(C)cc(C(O)(c3ccc(F)cc3)c3cncn3C)cc2c(C#N)c1-c1cccc(F)c1 (single isomer, unassigned) [Example 180b, 3-(3-Fluorophenyl)-6-((4-fluorophenyl)(hydroxy)(1-methyl-1H-imidazol-5-yl)methyl)-2-methoxy-8-methylquinoline-4-carbonitrile]
10 | 97 nM | 170 nM | – | 93 nM | 99% | – | COc1nc2c(C)cc(C(O)(c3ccc(F)cc3)c3cncn3C)cc2c(C#N)c1-c1cccc(F)c1 (single isomer, unassigned) [Example 180c, 3-(3-Fluorophenyl)-6-((4-fluorophenyl)(hydroxy)(1-methyl-1H-imidazol-5-yl)methyl)-2-methoxy-8-methylquinoline-4-carbonitrile]
11 | – | 62 nM | 99% | 27 nM | – | 120 nM | CC(=O)N1CCC(C(O)(c2ccc3nc(C(F)(F)F)c(-c4ccccc4)c(C(F)(F)F)c3c2)c2cncn2C)CC1 (single isomer, unassigned) [Example 181b, 1-(4-(Hydroxy(1-methyl-1H-imidazol-5-yl)(3-phenyl-2,4-bis(trifluoromethyl)quinolin-6-yl)methyl)piperidin-1-yl)ethanone]
12 | 160 nM | 53 nM | – | 23 nM | 105% | – | CC(=O)N1CCC(C(O)(c2ccc3nc(C(F)(F)F)c(-c4ccccc4)c(C(F)(F)F)c3c2)c2cncn2C)CC1 (single isomer, unassigned) [Example 181c, 1-(4-(Hydroxy(1-methyl-1H-imidazol-5-yl)(3-phenyl-2,4-bis(trifluoromethyl)quinolin-6-yl)methyl)piperidin-1-yl)ethanone]
13 | – | > 6000 nM | – | 3.7 nM | 34% | 1200 nM | COc1nc2c(C)cc(C(O)(c3ccc(C(F)(F)F)nc3)c3cncn3C)cc2c(Cl)c1-c1ccc(OC(F)(F)F)cc1 (single isomer, unassigned) [Example 183b, (4-Chloro-2-methoxy-8-methyl-3-(4-(trifluoromethoxy)phenyl)quinolin-6-yl)(1-methyl-1H-imidazol-5-yl)(6-(trifluoromethyl)pyridin-3-yl)methanol]
14 | 870 nM | 360 nM | – | 190 nM | 73% | – | COc1nc2c(C)cc(C(O)(c3ccc(C(F)(F)F)nc3)c3cncn3C)cc2c(Cl)c1-c1ccc(OC(F)(F)F)cc1 (single isomer, unassigned) [Example 183c, (4-Chloro-2-methoxy-8-methyl-3-(4-(trifluoromethoxy)phenyl)quinolin-6-yl)(1-methyl-1H-imidazol-5-yl)(6-(trifluoromethyl)pyridin-3-yl)methanol]
15 | – | 260 nM | – | 41 nM | 97% | 700 nM | Cc1cc(C(O)(c2ccc(C(F)(F)F)nc2)c2cncn2C)cc2c(C#N)c(-c3ccc(F)cc3)c(C#N)nc12 (single isomer, unassigned) [Example 184c, 3-(4-Fluorophenyl)-6-(hydroxy(1-methyl-1H-imidazol-5-yl)(6-(trifluoromethyl)pyridin-3-yl)methyl)-8-methylquinoline-2,4-dicarbonitrile]
16 | – | 130 nM | 103% | 29 nM | – | 96 nM | Cn1cncc1C(O)(c1ccc2nc(C(F)(F)F)c(-c3ccccc3)c(C(F)(F)F)c2c1)c1ccccn1 (single isomer, unassigned) [Example 185b, (1-Methyl-1H-imidazol-5-yl)(3-phenyl-2,4-bis(trifluoromethyl)quinolin-6-yl)(pyridin-2-yl)methanol]
